Where two headings read alike, the source gives them in different places. Blank lines part the entries; values can stand above or below the molecule they belong to.
Columns and labels:
D1 receptors = molecular target: T1, D1 receptors (Rattus norvegicus, UniProt P18901); assay: cAMP production in rat striatum; format: biochemical; conditions: for agonist activity (intrinsic activity): rat striatum / rat striatal membranes, relative to dopamine
T1 construct: increase cAMP production in rat striatum and C-6-mD1 cells; from tissue; host or cells: rat striatum (striatal membranes)
T1 sequence (P18901 whole entry): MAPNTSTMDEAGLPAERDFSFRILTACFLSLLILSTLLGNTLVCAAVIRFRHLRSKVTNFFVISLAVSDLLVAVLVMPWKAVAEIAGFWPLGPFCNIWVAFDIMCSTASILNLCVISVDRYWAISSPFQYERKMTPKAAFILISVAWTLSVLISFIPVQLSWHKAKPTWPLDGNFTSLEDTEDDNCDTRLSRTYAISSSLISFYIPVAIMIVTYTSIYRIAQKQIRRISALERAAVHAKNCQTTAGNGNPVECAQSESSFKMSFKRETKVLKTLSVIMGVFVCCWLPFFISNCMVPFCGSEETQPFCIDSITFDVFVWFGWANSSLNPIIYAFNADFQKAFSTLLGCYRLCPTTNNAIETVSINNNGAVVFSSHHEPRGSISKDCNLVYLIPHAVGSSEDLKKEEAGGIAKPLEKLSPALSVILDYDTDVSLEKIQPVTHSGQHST

[1] = molecular target: T2, cloned expressed primate D1A receptors (Macaca mulatta, UniProt O77680); assay: cAMP production in C-6-mD1 cells; format: cell-based; conditions: for agonist activity (intrinsic activity): C-6-mD1 cells / cloned expressed primate D1A receptors, relative to dopamine
T2 construct: expressed in transfected cells; host or cells: C-6 cells (C-6-mD1)
T2 sequence (O77680 whole entry): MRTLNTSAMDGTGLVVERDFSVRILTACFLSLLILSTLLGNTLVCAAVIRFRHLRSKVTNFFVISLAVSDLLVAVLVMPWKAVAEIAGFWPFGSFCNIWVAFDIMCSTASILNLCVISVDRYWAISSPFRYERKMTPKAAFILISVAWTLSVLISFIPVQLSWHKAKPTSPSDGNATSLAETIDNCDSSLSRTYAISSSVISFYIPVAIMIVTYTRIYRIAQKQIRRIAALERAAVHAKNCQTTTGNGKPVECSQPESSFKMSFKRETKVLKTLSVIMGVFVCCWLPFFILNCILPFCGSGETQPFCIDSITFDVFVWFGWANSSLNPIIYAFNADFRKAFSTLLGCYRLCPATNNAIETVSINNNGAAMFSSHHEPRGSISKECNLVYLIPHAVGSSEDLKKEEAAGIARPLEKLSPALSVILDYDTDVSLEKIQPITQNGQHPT

[2] = molecular target: T3, rat striatal D1 receptors (Rattus norvegicus, UniProt P18901); assay: binding affinity to D1 receptors, competition with SCH23390
T3 construct: increase cAMP production in rat striatum and C-6-mD1 cells; from tissue; host or cells: rat striatum (striatal membranes)
T3 sequence (P18901 whole entry): as the sequence (P18901 whole entry) above
Source text: Experiments have been conducted to determine the binding affinity of dinoxyline to D1 receptors.

D2 receptors = assay: D2 agonist properties
[3] = tested on: D1 and D2 dopamine receptors; assay: D1:D2 selectivity; format: binding
unilateral 6-OHDA rats [4] = conditions: cited from earlier work; for efficacy in Parkinson's disease models: e.g. unilateral 6-OHDA-lesion rodent model
unilateral 6-OHDA rats [5] = assay: rat unilateral 6-OHDA rotation model of Parkinson's disease; format: in vivo; conditions: for increase in rotation relative to vehicle: 10 h; for rotation during continuous administration: osmotic minipump s.c.
Source text: Summary. In the rat unilateral 6-hydroxydopamine (6-OHDA) rotation model of Parkinson's disease, 6-OHDA is infused unilaterally into the medial forebrain bundle, the substantia nigra, or the striatum. […] When challenged with direct-acting dopamine receptor agonists, unilateral 6-OHDA rats turn contralaterally (away from the side of the lesion) because of the increased sensitivity of the postsynaptic dopamine receptors on the lesioned side. The experiments described below examine tolerance induced by the full D1 agonist, dinapsoline, using the 6-OHDA model.
Subjects. Adult male Sprague-Dawley Rats (Hilltop Laboratories, Chatsworth, Calif.), weighing between 280 and 320 grams, were used as subjects. Animals were housed individually with food and water available ad libitum, except as noted below. The light:dark schedule was 12 h:12 h, and testing was performed during the light cycle. All methods adhere to the guidelines in the Guide for the Care and Use of Experimental Animals published by the National Institutes of Health (Pub. 85-23, 1985).
Surgery. Rats were pretreated with 25 mg/kg desipramine (s.c.) approximately 30 minutes before surgery. Rats were anesthetized by inhalation of isoflurane (1.5 to 4.0%) and placed in a stereotaxic apparatus. An infusion cannula was placed in the medial forebrain bundle at the coordinates A.P. −3.8 mm, M.L. −1.5 mm, and D.V. −3.8 mm relative to bregma according to the atlas of Paxinos and Watson (1986). Ten micrograms of 6-OHDA (6-hydroxydopamine; Sigma Chemical Co., St. Louis, Mo.) in a volume of 4 μL was infused at a rate of 0.5 μL/min in a vehicle of 0.01% ascorbate. After a 14-day recovery period, rats were prescreened for rotation in response to d-amphetamine (5 mg/kg) and to apomorphine (0.3 mg/kg) 1 week later. Animals that responded to both d-amphetamine (>800 rotations in 3 h) and apomorphine (>100 rotations in 1 h) were retained for further study.
Testing of compounds began on day 28 postsurgery in each case. A new group of 6-OHDA-lesioned rats was used for each new study. In some studies, rats were implanted with a subcutaneous 14-day osmotic minipump (model 2 ML2, Alza, Palo Alto, Calif.) with a flow rate of 5.0 μL/h. The rats were re-anesthetized with 1.5 to 4% isoflurane, a small incision was made on the back of the neck, and the minipump was placed subcutaneously in the cavity. The incision was closed with sterile wound clips. Before implantation, minipumps were incubated in sterile saline (37° C.) to ensure outflow at the time of implantation. The minipumps were used to administer dinapsoline, or vehicle (50% dimethyl sulfoxide (DMSO), 12.5% ascorbic acid).
Apparatus, Procedure, and Statistics. Rats were tested for rotation in automated rotation chambers (Rotoscan, Accuscan, Columbus, Ohio). The apparatus consisted of a cylindrical Plexiglas chamber 30 cm in diameter in which the animal is fitted to a harness attached to a flexible rod connected to a rotating microswitch. Animals were allowed to habituate to chambers for 30 minutes before drug treatment in each case. Data were collected for 1 to 12 h after injection, using 15 minute time bins. Treatments were compared using one-way and repeated measures of analysis of variance (ANOVA), as appropriate; post hoc analysis was performed with Dunnett's test.
Acute Dinapsoline Administration. Beginning 1 week after the screening dose with apomorphine, subjects (n=12) were tested once per week with dinapsoline (0.02, 0.2, or 2 mg/kg) or vehicle (s.c.) using a counterbalanced design, and rotation behavior was monitored for 10 h. After the final day of testing, rats were euthanized and brains were removed for subsequent assessment of dopamine depletion. In the oral dosing experiments, a separate group of subjects (n=8) received dinapsoline (0.02, 0.2, or 2 mg/kg) or vehicle once per week using a counterbalanced design. Rats were fasted for 16 h before dosing with oral gavage, and rotation behavior was monitored for 10 h.

[6] = in vivo; cited from earlier work
[7] = A-77636 0.3 mg/kg s.c. alone, 3 h

agonist activity (intrinsic activity) (D1 receptors; hydrobromide): full agonist activity
EC50 (D1 receptors; rat striatum, read-out: EC50 in stimulating synthesis of cAMP via D1 receptors): < 30 nM
agonist activity (intrinsic activity) ([1]; hydrobromide): full agonist activity
EC50 ([1]; C-6-mD1 cells, read-out: EC50 in stimulating synthesis of cAMP via D1 receptors): < 30 nM
affinity for dopamine D1 receptors labeled with [3H]SCH23390 ([2]; compared with dihydrexidine): high affinity
nH of competition curve ([2]; competition with SCH23390): ca. 0.7
Ki ([2]; rat striatal D1 receptors, read-out: K0.5 (affinity)): < 5 nM
D2 agonist properties (D2 receptors): some D2 agonist properties
Compound: Br.Oc1ccc2c(c1O)Oc1cccc3c1C2CNC3 (racemic) [dinoxyline, (±)-8,9-dihydroxy-1,2,3,11b-tetrahydrochromeno[4,3,2-de]isoquinoline hydrobromide]
D1:D2 selectivity [3]: equally high affinity for both types of receptors
efficacy in Parkinson's disease models (unilateral 6-OHDA rats [4]): efficacious

Compound: Oc1cc2c(cc1O)C(c1ccccc1)CNCC2 (single isomer, unassigned; (+)) [(+)-SKF-38393, reference compound]
agonist activity (intrinsic activity) [1]: partial agonist

agonist activity (intrinsic activity) (D1 receptors): full agonist
agonist activity (intrinsic activity) [1]: full agonist
D2 agonist properties (D2 receptors): some D2 agonist properties
D1:D2 selectivity [3]: ten-fold
Compound: Oc1cc2c(cc1O)[C@H]1c3ccccc3CN[C@@H]1CC2 (stereo in doubt) [dihydrexidine, (+)-trans-10,11-dihydroxy-5,6,6a,7,8,12b-hexahydrobenzo[a]phenanthridine]
efficacy in Parkinson's disease models (unilateral 6-OHDA rats [4]): efficacious

Compound: NC[C@@H]1O[C@H](C23CC4CC(CC(C4)C2)C3)Cc2c1ccc(O)c2O [Compound A-77636, reference compound]
D1:D2 selectivity [3]: more strongly D1 selective than dinapsoline
duration of rotation (unilateral 6-OHDA rats [5]; 1 mg/kg s.c.): approximately 18 h
behavioral tolerance (unilateral 6-OHDA rats [5]; 1 mg/kg s.c. once daily for 14 days, 3 h rotation): dramatic behavioral tolerance
rotation on second day of dosing (unilateral 6-OHDA rats [5]; 1 mg/kg s.c. once daily, day 2 vs day 1): significantly less rotation than on the first day
amount of rotation on fourth day of dosing (unilateral 6-OHDA rats [5]; 1 mg/kg s.c. once daily, day 4, complete tolerance): no greater than that seen with vehicle
rotation in naive animals (unilateral 6-OHDA rats [5]; 1 mg/kg s.c., first day): robust rotation
tolerance on day 3 challenge (unilateral 6-OHDA rats [5]; A-77636 0.3 mg/kg s.c. alone after 2 days A-77636 with or without quinpirole): equal tolerance in both groups
rotational response day 1 (unilateral 6-OHDA rats [5]; [7]): maximal rotational response
tolerance by day 2 (unilateral 6-OHDA rats [5]; [7]): significant tolerance
duration of action (unilateral 6-OHDA rats [4]; Asin and Wirtshafter, 1993): 18 h
plasma half-life [6]: > 6 h

Compound: CN1CCc2cc(Cl)c(O)cc2[C@@H](c2ccccc2)C1 [SCH-23390, reference compound]
duration of action (unilateral 6-OHDA rats [5]; in our assay): approximately 3 h

Compound: Oc1ccc2c(c1O)Cc1cccc3c1[C@H]2CNC3 [dinapsoline]
D2 agonist properties (D2 receptors): some D2 agonist properties
D1:D2 selectivity [3]: five-fold
increase in rotation relative to vehicle (unilateral 6-OHDA rats [5]; 0.02 mg/kg s.c.): but not at 0.02 mg/kg
duration of rotation (unilateral 6-OHDA rats [5]; 0.2 mg/kg s.c.): about 5 h
increase in rotation relative to vehicle (unilateral 6-OHDA rats [5]; 0.2 mg/kg s.c.): Statistically significant increases
duration of rotation (unilateral 6-OHDA rats [5]; 2 mg/kg oral): 7 h
increase in rotation versus baseline (unilateral 6-OHDA rats [5]; 2 mg/kg oral): significantly different from baseline
change in rotational response over time (unilateral 6-OHDA rats [5]; 2 mg/kg s.c. once daily, 14 days): significant increase in response over time
behavioral tolerance (unilateral 6-OHDA rats [5]; 2 mg/kg s.c. once or twice daily, 14 days): no evidence for behavioral tolerance
change in rotational response over time (unilateral 6-OHDA rats [5]; 2 mg/kg s.c. twice daily, 14 days): significant increase in response over time
increase in rotation relative to vehicle (unilateral 6-OHDA rats [5]; 2.0 mg/kg s.c.): Statistically significant increases
rotational behavior (cumulative rotation over 10 h) (unilateral 6-OHDA rats [5]; acute 0.02, 0.2, 2 mg/kg s.c.): robust, dose-dependent rotational behavior
rotation (cumulative over 10 h) (unilateral 6-OHDA rats [5]; acute oral 0.02, 0.2, 2 mg/kg, response not dose-dependent): robust rotation
rotation after challenge dose 0.2 mg/kg s.c. on day 14 (unilateral 6-OHDA rats [5]; after 0.6 mg/kg/day by minipump): no rotation
rotation after challenge dose 0.2 mg/kg s.c. on day 14 (unilateral 6-OHDA rats [5]; after 6 mg/kg/day by minipump): no rotation
difference between groups on dinapsoline-alone challenge (unilateral 6-OHDA rats [5]; day 7, after 6 days dinapsoline with or without raclopride): no difference was observed
rotation during continuous administration (unilateral 6-OHDA rats [5]; highest dose (6 mg/kg/day)): brief behavioral response to which complete tolerance developed by 24 h
rotation during continuous administration (unilateral 6-OHDA rats [5]; lower doses (0.006, 0.06, 0.6 mg/kg/day)): no evidence of rotation
efficacy in Parkinson's disease models (unilateral 6-OHDA rats [4]): efficacious

Compound: CCN1CCC[C@H]1CNC(=O)c1c(O)c(Cl)cc(Cl)c1OC [raclopride, reference compound]
effect of daily coadministration on rotational response to dinapsoline (unilateral 6-OHDA rats [5]; raclopride 2 mg/kg s.c. with dinapsoline 2 mg/kg s.c., days 1 through 6): no significant difference
effect of antagonist pretreatment on rotational response to dinapsoline (unilateral 6-OHDA rats [5]; raclopride 2 mg/kg s.c., dinapsoline 0.2 mg/kg s.c., 3 h): did not reduce
effect of antagonist pretreatment on rotational response to dinapsoline (unilateral 6-OHDA rats [5]; raclopride 2 mg/kg s.c., dinapsoline 2 mg/kg s.c., 3 h): did not reduce
effect on rotation produced by quinpirole (unilateral 6-OHDA rats [5]; raclopride 2 mg/kg s.c., quinpirole 0.25 mg/kg s.c., data not shown): blocked completely
